Measurements taken from patent US6500842B1, “8-hydroxy-7-substituted quinolines as anti-viral agents” (Pharmacia & Upjohn Company, priority 1996, dated 2002).
“And” between values parts separate entries of the source, which are not always exact repeats. Equal entries are not always repeated. Where two headings read alike, the source gives them in different places.

Experiments:
CMV polymerase = biological target: T1, CMV polymerase (Human cytomegalovirus, UniProt P08546); test: modified version of the HCMV polymerase assay (100% DMSO dilution, DTT, different enzyme lot); format: biochemical
T1 construct: made in house; host or cells: recombinant baculovirus-infected SF-9 cells
Procedure: (§1) The HCMV polymerase assay is performed using a scintillation proximity assay (SPA) as described in several references, such as N. D. Cook, et al., Pharmaceutical Manufacturing International, pages 49-53 (1992); K. Takeuchi, Laboratory Practice, September issue (1992); U.S. Pat. No. 4,568,649 (1986); which are incorporated by reference herein. Reactions are performed in 96-well plates. The assay is conducted in 100 μl volume with 5.4 mM HEPES (pH 7.5), 11.7 mM KCl, 4.5 mM MgCl2, 0.36 mg/ml BSA, and 90 nM ^3H-dTTP. Assays are run with and without CHAPS, (3-[(3-Cholamidopropyl)-dimethylammonio]-1-propane-sulfonate) at a final concentration of 2 mM. HCMV is diluted in enzyme dilution buffer containing 50% glycerol, 250 mM NaCl, 10 mM HEPES (pH 7.5), 100 pg/ml BSA, and 0.01% sodium azide. The HCMV polymerase, which is expressed in recombinant baculovirus-infected SF-9 cells and purified according to literature procedures, is added at 10% (or 10 μl) of the final reaction volume, i.e., 100 μl. Compounds are diluted in 50% DMSO and 10 μl are added to each well. Control wells contain an equivalent concentration of DMSO. Unless noted otherwise, reactions are initiated via the addition of 6 nM biotinylated poly(dA)-oligo(dT) template/primer to reaction mixtures containing the enzyme, substrate, and compounds of interest. Plates are incubated in a 25° C. of 37° C. H2O bath and terminated via the addition of 40 μl/reaction of 0.5 M EDTA (pH 8) per well. Reactions are terminated within the time-frame during which substrate incorporation is linear and varied depending upon the enzyme and conditions used, i.e., 30 min. for HCMV polymerase. Ten μl of streptavidin-SPA beads (20 mg/ml in PBS/10% glycerol) are added following termination of the reaction. Plates are incubated 10 min. at 37° C., then equilibrated to room temperature, and counted on a Packard Topcount. Linear regressions are performed and IC50's are calculated using computer software. Results of the testing of compounds of the present invention in this assay are shown in Tables 1, 2, 5, 9, 10, 11, 13 (except for the last compound which was tested under modified conditions) and 14 below.
A modified version of the above HCMV polymerase assay is performed as described above, but with the following changes: Compounds are diluted in 100% DMSO until final dilution into assay buffer. In the previous assay, compounds are diluted in 50% DMSO. 4.5 mM dithiotherotol (DTT) is added to the polymerase buffer.

HCMV polymerase = biological target: T2, HCMV polymerase (Human cytomegalovirus, UniProt P08546); test: HCMV polymerase assay (scintillation proximity assay); format: biochemical
T2 construct: made in house; host or cells: recombinant baculovirus-infected SF-9 cells
Procedure: as §1

[1] = pol type CMV, Table 1, read-out: CMV pol Assay IC50
[2] = pol type CMV, Table 2, read-out: IC50
[3] = Table 5, pol type CMV, read-out: IC50
[4] = Polymerase CMV, Table 7, read-out: Antiviral Selective Polymerase IC50 Values - IC50
[5] = Table 10, CMV pol Assay, read-out: IC50
[6] = Table 11, read-out: CMV pol Assay IC50

T2 sequence (P08546 whole entry): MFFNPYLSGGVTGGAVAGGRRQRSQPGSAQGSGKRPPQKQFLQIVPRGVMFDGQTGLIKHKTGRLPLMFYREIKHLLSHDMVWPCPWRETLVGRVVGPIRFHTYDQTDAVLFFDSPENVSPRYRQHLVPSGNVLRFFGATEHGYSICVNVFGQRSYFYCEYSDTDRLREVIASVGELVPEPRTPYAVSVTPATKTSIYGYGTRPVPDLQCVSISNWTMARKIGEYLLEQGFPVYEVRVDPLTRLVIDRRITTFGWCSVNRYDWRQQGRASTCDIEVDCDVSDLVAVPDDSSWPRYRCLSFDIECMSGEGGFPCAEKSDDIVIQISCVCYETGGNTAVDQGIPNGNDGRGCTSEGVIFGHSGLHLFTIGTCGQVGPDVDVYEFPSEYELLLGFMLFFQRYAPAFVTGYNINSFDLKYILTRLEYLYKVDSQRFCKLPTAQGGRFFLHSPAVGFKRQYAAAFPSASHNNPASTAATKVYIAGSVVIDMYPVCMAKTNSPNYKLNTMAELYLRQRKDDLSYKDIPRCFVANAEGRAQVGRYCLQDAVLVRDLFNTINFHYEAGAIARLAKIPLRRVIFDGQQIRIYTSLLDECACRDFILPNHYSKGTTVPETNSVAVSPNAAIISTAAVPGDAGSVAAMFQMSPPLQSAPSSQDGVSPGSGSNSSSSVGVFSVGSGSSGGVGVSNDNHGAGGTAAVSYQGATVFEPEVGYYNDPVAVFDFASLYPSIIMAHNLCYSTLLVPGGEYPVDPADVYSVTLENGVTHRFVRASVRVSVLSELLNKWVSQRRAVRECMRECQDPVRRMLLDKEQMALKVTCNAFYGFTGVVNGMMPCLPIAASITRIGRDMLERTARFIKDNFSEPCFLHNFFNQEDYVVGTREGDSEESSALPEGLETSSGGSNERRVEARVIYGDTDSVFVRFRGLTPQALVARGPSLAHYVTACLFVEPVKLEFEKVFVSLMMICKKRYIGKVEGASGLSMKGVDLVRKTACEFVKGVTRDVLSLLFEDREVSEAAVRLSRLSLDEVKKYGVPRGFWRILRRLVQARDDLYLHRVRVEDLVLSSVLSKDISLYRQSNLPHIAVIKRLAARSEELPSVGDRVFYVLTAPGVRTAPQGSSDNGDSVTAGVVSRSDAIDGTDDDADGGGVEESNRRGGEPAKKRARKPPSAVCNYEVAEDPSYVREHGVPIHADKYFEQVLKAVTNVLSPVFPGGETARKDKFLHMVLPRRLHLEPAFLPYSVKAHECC
T1 sequence (P08546 whole entry): as above

O=C(NCCCc1ccccc1)c1ccc2ccc(/C=C/c3ccccc3)nc2c1O
IC50 (CMV polymerase; Table 13, last compound, tested under modified conditions, read-out: IC50): 5.1 µM

CC(C)C[C@H](Nc1nnc(NC(=O)c2ccc3cccnc3c2O)s1)C(=O)OC(C)(C)C.O (hydrate or solvate)
melting point: 214 to 215 °C

CSCC[C@H](Nc1nnc(NC(=O)c2ccc3cccnc3c2O)s1)C(=O)OC(C)(C)C.O (hydrate or solvate)
melting point: 204 to 205 °C

O=C(Nc1nnc(Cc2ccc(Cl)cc2)s1)c1ccc2cccnc2c1O [Example 2, N-[5-[(4-Chlorophenyl)methyl]-1,3,4-thiadiazol-2-yl]-8-hydroxy-7-quinolinecarboxamide]
IC50 (HCMV polymerase; [1]): 4.3 µM | melting point: 276 to 278 °C

O=C(Nc1ccc(Cl)cc1)c1ccc2cccnc2c1O [Example 3, N-(4-Chlorophenyl)-8-hydroxy-7-quinolinecarboxamide]
IC50 (HCMV polymerase; [1]): 7.1 µM | melting point: 207 to 209 °C

O=S(=O)(NCc1ccccc1)c1cc(Br)c2cccnc2c1O [Example 24, 5-Bromo-8-hydroxy-N-(phenylmethyl)-7-quinolinesulfonamide]
melting point: 191 to 192 °C

Cc1ccc2c(Cl)cc(S(=O)(=O)NCc3ccc(F)cc3)c(O)c2n1 [Example 30]
% Inhib (HCMV polymerase; Conc 1.00e−004 M, Table 2): 97% | % Inhib (HCMV polymerase; Conc 1.30e−005 M, Table 2): 73.4% | % Inhib (HCMV polymerase; Conc 2.50e−005 M, Table 2): 87.5% | % Inhib (HCMV polymerase; Conc 3.13e−006 M, Table 2): 42.6% | % Inhib (HCMV polymerase; Conc 5.00e−005 M, Table 2): 95.4% | % Inhib (HCMV polymerase; Conc 6.25e−006 M, Table 2): 59.9% | IC50 (HCMV polymerase; [2]): 4.3 µM

Cc1ccc2c(Cl)cc(S(=O)(=O)NCc3cccc4ccccc34)c(O)c2n1 [Example 31, 5-Chloro-8-hydroxy-2-methyl-N-(1-naphthalenylmethyl)-7-quinolinesulfonamide]
% Inhib (HCMV polymerase; Conc 1.00e−004 M, Table 2): 97.3% | % Inhib (HCMV polymerase; Conc 1.00e−005 M, Table 2): 88.2% | % Inhib (HCMV polymerase; Conc 1.25e−006 M, Table 2): 22.7% | % Inhib (HCMV polymerase; Conc 1.30e−005 M, Table 2): 97.3% | % Inhib (HCMV polymerase; Conc 2.50e−005 M, Table 2): 97.8% | % Inhib (HCMV polymerase; Conc 2.50e−006 M, Table 2): 38.5% | % Inhib (HCMV polymerase; Conc 3.13e−006 M, Table 2): 82.9% | % Inhib (HCMV polymerase; Conc 3.13e−007 M, Table 2): −7.9% | % Inhib (HCMV polymerase; Conc 5.00e−005 M, Table 2): 97.8% | % Inhib (HCMV polymerase; Conc 5.00e−006 M, Table 2): 55% | % Inhib (HCMV polymerase; Conc 6.25e−006 M, Table 2): 95% | % Inhib (HCMV polymerase; Conc 6.25e−007 M, Table 2): 20% | IC50 (HCMV polymerase; [2]): < 3.1 µM and 3.7 µM

Cc1ccc2c(Cl)cc(S(=O)(=O)NCC3CCCCC3)c(O)c2n1 [Example 32, 5-Chloro-N-(cyclohexylmethyl)-8-hydroxy-2-methyl-7-quinolinesulfonamide]
melting point: 113 to 115 °C

CCCCCCCNC(=O)c1ccc2ccc(/C=C/c3ccccc3)nc2c1O [Example 49, N-Heptyl-8-hydroxy-2-(2-phenylethenyl)-7-quinolinecarboxamide]
IC50 (HCMV polymerase; [3]): < 3.1 µM and 0.6 µM

CCCCCCCNC(=O)c1ccc2ccc(C(F)(F)F)nc2c1O [Example 56, N-Heptyl-8-hydroxy-2-(trifluoromethyl)-7-quinolinecarboxamide]
melting point: 97 to 99 °C

O=C(NCc1ccc(Cl)cc1)c1ccc2ccc(/C=C/c3ccco3)nc2c1O [Example 57, N-[(4-Chlorophenyl)methyl]-2-[2-(2-furyl)ethenyl]-8-hydroxy-7-quinolinecarboxamide]
IC50 (HCMV polymerase; [3]): 8 µM

Cc1ccc2c(Cl)cc(S(=O)(=O)NCCc3c[nH]c4ccccc34)c(O)c2n1 [Example 64]
% Inhibition (CMV polymerase; Concentration 3.13 μM, Table 6): 16% | % Inhibition (CMV polymerase; Concentration 6.25 μM, Table 6): 25% | % Inhibition (CMV polymerase; Concentration 12.5 μM, Table 6): 25% | % Inhibition (CMV polymerase; Concentration 25 μM, Table 6): 46% | % Inhibition (CMV polymerase; Concentration 50 μM, Table 6): 75% | % Inhibition (CMV polymerase; Concentration 100 μM, Table 6): 58% | % Inhibition (CMV polymerase; Concentration 200 μM, Table 6): 84% | IC50 (CMV polymerase; Table 6, read-out: IC50): 29.8 µM

O=S(=O)(NCc1ccccc1)c1cc(F)c2cccnc2c1O [Example 67, 5-Flouro-8-hydroxy-N-(phenylmethyl)-7-quinolinesulfonamide]
% Inhibition (CMV polymerase; Concentration 3.13 μM, Table 6): 13% | % Inhibition (CMV polymerase; Concentration 6.25 μM, Table 6): 23% | % Inhibition (CMV polymerase; Concentration 12.5 μM, Table 6): 25% | % Inhibition (CMV polymerase; Concentration 25 μM, Table 6): 41% | % Inhibition (CMV polymerase; Concentration 50 μM, Table 6): 76% | % Inhibition (CMV polymerase; Concentration 100 μM, Table 6): 86% | % Inhibition (CMV polymerase; Concentration 200 μM, Table 6): 94% | IC50 (CMV polymerase; Table 6, read-out: IC50): 23.6 µM

Cc1ccc2c(Cl)cc(C(=O)NCc3ccc(Cl)cc3)c(O)c2n1 [Example 68, 5-Chloro-N-[(4-chlorophenyl)methyl]-8-hydroxy-2-methyl-7-quinolinecarboxamide]
melting point: 128 to 130 °C

Cc1ccc2c(Cl)cc(C(=O)NCCCc3ccccc3)c(O)c2n1 [Example 69, 5-chloro-8-hydroxy-2-methyl-N-(3-phenylpropyl)-7-quinolinecarboxamide]
melting point: 109 to 111 °C

Cc1ccc2c(Cl)cc(C(=O)NCCSc3ccccc3)c(O)c2n1 [Example 70, 5-chloro-8-hydroxy-2-methyl-N-[(2-phenylthio)ethyl]-7-quinolinecarboxamide]
melting point: 131 to 134 °C

CC(C)c1ccc(S(=O)(=O)NCCCCCNC(=O)c2ccc3cccnc3c2O)cc1 [Example 71]
melting point: 106 to 108 °C

N#CCNC(=O)c1ccc2cccnc2c1O [Example 72, N-(cyanomethyl)-8-hydroxy-7-quinolinecarboxamide]
melting point: 206 to 208 °C (dec.)

COc1ccc(CCc2ccc3ccc(C(=O)NCC(O)c4ccccc4)c(O)c3n2)cc1 (centres unmarked) [Example 73, 8-hydroxy-N-(2-hydroxy-2-phenylethyl)-2-[2-(4-methoxyphenyl)ethyl]-7-quinolinecarboxamide]
melting point: 69 to 72 °C

O=C(Nc1cc(C(F)(F)F)ccc1Cl)c1ccc2cccnc2c1O [Example 164, N-[2-Chloro-5-(trifluoromethyl)phenyl]-8-hydroxy-7-quinolinecarboxamide]
melting point: 210 to 211 °C

Cc1ccc(F)cc1NC(=O)c1ccc2cccnc2c1O [Example 165, N-(5-Fluoro-2-methylphenyl)-8-hydroxy-7-quinolinecarboxamide]
melting point: 209 to 210 °C

Cc1ccc(NC(=O)c2ccc3cccnc3c2O)c(C)c1 [Example 166, N-(2,4-Dimethylphenyl)-8-hydroxy-7-quinolinecarboxamide]
melting point: 164 to 167 °C

O=C(Nc1nnc(C(F)(F)F)s1)c1ccc2cccnc2c1O [Example 243, 8-Hydroxy-N-[5-(trifluoromethyl)-1,3,4-thiadiazol-2-yl]-7-quinolinecarboxamide]
melting point: 300 to 302 °C (dec.)

O=C(Nc1nnc(Br)s1)c1ccc2cccnc2c1O [Example 244, N-(5-Bromo-1,3,4-thiadiazol-2-yl)-8-hydroxy-7-quinolinecarboxamide]
melting point: 250 °C (dec.)

Cc1ccc2c(Cl)cc(C(=O)NCCCc3ccccc3)c(O)c2n1 [drawing 126]
IC50 (CMV polymerase; [4]): 9.7 µM and 9.4 µM

Cc1ccc2c(Cl)cc(C(=O)NCCSc3ccccc3)c(O)c2n1 [drawing 127]
IC50 (CMV polymerase; [4]): 42.8 µM

CC(C)c1ccc(S(=O)(=O)NCCCCCNC(=O)c2ccc3cccnc3c2O)cc1 [drawing 128]
IC50 (CMV polymerase; [4]): < 3.1 µM

COc1ccc(CCc2ccc3ccc(C(=O)NCC(O)c4ccccc4)c(O)c3n2)cc1 (centres unmarked) [drawing 129]
IC50 (CMV polymerase; [4]): 13.3 µM

O=C(NCc1ccc(Cl)cc1)c1ccc2cccnc2c1O [drawing 169]
IC50 (HCMV polymerase; Table 9, read-out: CMV pol Assay- IC50): 8.1 µM

N#Cc1ccc(NC(=O)c2ccc3cccnc3c2O)cc1 [drawing 210]
IC50 (HCMV polymerase; [5]): > 100 µM

O=C(Nc1cc(C(F)(F)F)ccc1Cl)c1ccc2cccnc2c1O [drawing 221]
IC50 (HCMV polymerase; [5]): 14 µM

Cc1ccc(F)cc1NC(=O)c1ccc2cccnc2c1O [drawing 222]
IC50 (HCMV polymerase; [5]): 14.7 µM

Cc1ccc(NC(=O)c2ccc3cccnc3c2O)c(C)c1 [drawing 223]
IC50 (HCMV polymerase; [5]): 22.4 µM

Cc1cccc(NC(=O)c2ccc3cccnc3c2O)c1 [drawing 224]
IC50 (HCMV polymerase; [5]): 12.2 µM

Cc1ccc(NC(=O)c2ccc3cccnc3c2O)c(C)c1 [drawing 279]
IC50 (HCMV polymerase; [5]): 8.1 µM

Cc1ccc(F)cc1NC(=O)c1ccc2cccnc2c1O [drawing 282]
IC50 (HCMV polymerase; [5]): 6.6 µM

Cc1cccc(NC(=O)c2ccc3cccnc3c2O)c1 [drawing 284]
IC50 (HCMV polymerase; [5]): 7 µM

O=C(Nc1nnc(C(F)(F)F)s1)c1ccc2cccnc2c1O [drawing 303]
IC50 (HCMV polymerase; [6]): 71 µM

O=C(Nc1nnc(Br)s1)c1ccc2cccnc2c1O [drawing 304]
IC50 (HCMV polymerase; [6]): 93.2 µM
